Laboratory results taken from patent US20130022640A1, “IMMUNE MODULATORS RELATING TO FOXO3A” (Secretary, Department of Health and Human Services, priority 2010, published 2013).

Assays:
[1] = test system: TcR-I T cells; test: In vitro TcR-I proliferation and tolerance with TRAMP DCs and blocking agents; assay type: cell-based, mouse
Description: Naïve TcR-I T cells were used as responder cells in a proliferation assay; 2×10^4 T cells were stimulated with antigen and 2×10^4 isolated prostatic DCs. After 72 h of culture, wells were pulsed with 1 μCi [^3H] thymidine (Amersham, Buckinghamshire, England) for 16 h. The cells were then harvested using a Cell Harvester (Tomtec, Hamden, Conn.) and radioactivity was measured in a Liquid Scintillation Counter (WALLAC MICROBETA™ TriLux, PerkinElmer, Waltham, Mass.).
Naïve TcR-I T cells were co-cultured with DC for 72 hours. TcR-I cells were then re-isolated via negative selection with magnetic beads. To assess tolerance, TcR-I T cells were subjected to secondary stimulation with normal splenocytes and TAg. After 48 hours, wells were pulsed with 1 μCi [^3H] thymidine (Amersham, Buckinghamshire, England) for 12 hours. […] One μCi of [^3H] thymidine per well was added for an additional 16 h and harvested as described above.
(§1) To investigate the effects of blocking IDO in vitro, 1MDT was also added to purified DC cultures to inhibit IDO activity during DC stimulation of TcR-I proliferation (FIG. 6A). Tolerance was assessed by testing secondary stimulation 4 days after primary culture with 1 MDT, a blocking agent to suppressive mediator IDO (FIG. 6D).
(§2) To investigate the effects of blocking PD-1 in vitro, anti-PD-1 antibody was added to cultures of TcR-I T cells and TRAMP or WT prostate DCs. Tolerance was assessed by testing secondary stimulation 4 days after primary culture with blocking agents, including anti-PD-1 antibody, to suppressive mediators (FIG. 6D).

[2] = test system: TcR-I T cells; test: In vitro suppressor assay after 4 day culture of TcR-I T cells with TRAMP DC and blocking agents; assay type: cell-based, mouse; settings: TRAMP DC + agent
Description: Naïve TcR-I T cells were co-cultured with DC for 72 hours. TcR-I cells were then re-isolated via negative selection with magnetic beads. To assess tolerance, TcR-I T cells were subjected to secondary stimulation with normal splenocytes and TAg. After 48 hours, wells were pulsed with 1 μCi [^3H] thymidine (Amersham, Buckinghamshire, England) for 12 hours. To assess suppressor activity, graded numbers of TcR-I T cells were added to 1×10^4 responder 37B7 TRP-2-specific T cells (Singh et al., J. Immunother., 32: 129-139 (2009)), 1×10^5 splenocytes, and 5 μM TRP-2, and incubated for 72 h at 37° C. One μCi of [^3H] thymidine per well was added for an additional 16 h and harvested as described above.
as §1
as §2, with “6D). Suppressor activity was also measured after 4 day culture with blocking agents, including anti-PD-1 antibody, and the results are shown in Table 9.” for “6D).”

[3] = test system: TRAMP mice; test: UGT and prostate weights (tumor burden) after TcR-I transfer; assay type: in vivo, mouse; settings: day 12 after TcR-I transfer, vs control/untreated
Description: (§3) Lymph node (LN) cells from TcR-I mice were prepared in a single-cell suspension. Cell numbers were adjusted to 3×10^6 TcR-I cells to be transferred intravenously (i.v.) into recipient mice. In some experiments, inhibitors to IDO (1-methly-D-tryptophan, 1MDT) and arginase ((S) 2-bronoethyl)-L-cysteine (BEC)) were added to the drinking water every 3 days (5 μg/ml).
(§4) A blocking anti-PD-1 antibody (Ab) (clone RMP1-14) (Yamazaki et al., J. Immunol., 175: 1586-1592 (2005)) was administered by intraperitoneal (i.p.) injection on days 0, 1, and 3 with respect to adoptive transfer of TcR-I T cells (250 μg/injection). Anti-TGF-β Ab was injected i.p. on days −1,0,1 and 2 with respect to TcR-I transfer (500 μg/injection). Anti-CD317 Ab (5 μg) (kindly provided by Dr. Marco Colonna) was injected i.p. on days −1 and 0 with respect to TcR-I transfer (Blasius et al., J. Immunol., 177: 3260-3265 (2006)).
Control antibody or anti-CD317 antibody was injected i.p. into TRAMP mice on days −1 and 0 relative to T cell transfer. Weights of total urogenital tract (UGT) and dissected prostates were obtained at day 12. […]
Given the enhanced effector functions seen following inhibitory molecule blockade, the effect of blocking these suppressive mediators on anti-tumor immunity was tested. […] UGT weights (FIG. 7A) and prostate weights (FIG. 7B) were assessed on day 12 after TcR-I transfer.

[4] = test system: TcR-I T cells; test: ELISPOT (IFN-γ, granzyme B) of TcR-I T cells re-isolated from treated TRAMP mice; assay type: in vivo, mouse
Description: as §3, §4
Multiscreen plates (Millipore, Billerica, Mass.) were coated with 100 μl of capture Ab (R&D Systems Inc., Minneapolis, Minn.) overnight at 4° C. IFN-γ (1×10^5) or granzyme B (2×10^4) purified Thy 1.1^+ TcR T cells were added to increasing concentrations of TAg560-568. After incubation, plates were washed and processed as previously described (Shafer-Weaver et al., Cancer Research, 69: 6256-6264 (2009)).
It was next determined whether in vivo depletion of TADCs enhanced TcR-I effector function. TADCs were depleted via i.p. injection of anti-CD317 Ab into TRAMP mice. TcR-I T cells were then transferred into TRAMP mice with or without DC depletion. T cells were re-isolated on days 6 (FIGS. 3A and 3B) or 12 (FIGS. 3C and 3D) after transfer to assess CTL effector function.
Selective amino acid catabolism is a previously-described mechanism of immune dysfunction in cancer (Bronte et al., J. Exp. Med., 201: 1257-1268 (2005); Sharma et al., J. Clin. Invest., 117: 2570-2582 (2007); Srivastava et al., Cancer Res., 70: 68-77 (2010)). […]

[5] = 6 days after transfer into TRAMP mice, vs untreated/control Ab

With `N=C(NO)NCC[C@H](N)C(=O)O` [Nor-NOHA] the “TcR-I responsiveness (block of in vitro tolerization)” value ([1]; blocking ARG in vitro) was “did not enhance TcR-I responsiveness”.

With `Cn1cc(C[C@@H](N)C(=O)O)c2ccccc21` [1MDT, 1-methyl-D-tryptophan] the “% Suppression for Each Source of Primary Stimulation” value (shortened to “% Suppression for Each Source”) ([2]; Suppressor:Responder 1:1) was 20%, the “% Suppression for Each Source” value ([2]; Suppressor:Responder 1:2) was 15% and the “% Suppression for Each Source” value ([2]; Suppressor:Responder 1:4) was 8%. For the same compound, the “% Suppression for Each Source” value ([2]; Suppressor:Responder 2:1) was 30%, the prostate weight [3] was “statistically significant decrease” and the “total urogenital tract (UGT) weight” value [3] was “statistically significant decrease”. The “TADC-stimulated TcR-I proliferation” value ([1]; agent added to in vitro culture, primary stimulation) was “enhanced”, the “tolerization of TcR-I T cells during co-culture” value ([1]; secondary stimulation 4 days after primary culture with agent) was “did not prevent them from becoming tolerized” and the “IFN-γ secretion by TcR-I T cells” value [4, 5] was “significantly increased”. For the same compound, the “granzyme B secretion by TcR-I T cells” value [4, 5] was “significantly increased” and the “TcR-I T cell antigen responsiveness” value ([4]; day 12 after transfer / 12 days of treatment, TRAMP mice) was “loss of antigen responsiveness”.
